What was measured:
[1] = Solubility of PS552-02 in NaCl solutions; type: physicochemical
Excerpt: (§1) A specific example of an application for the dual-nebulizer technology is illustrated in the following example in which the desired co-delivery of two therapeutic agents that act synergistically is not possible due to the incompatibility of these agents in a single formulation. […] However, due to the poor solubility of PS552-02 in NaCl solutions, these two agents cannot be formulated together. Currently, administration of PS552-02 and hypertonic saline would require two independent nebulizer treatments. However, a dual nebulizer system alleviates this issue by allowing both agents to be simultaneously delivered. Compound PS552-02 is represented by the formula: […]

airway surface = test: Airway surface hydration with PS552-02 and hypertonic saline; conditions: PS552-02 together with hypertonic saline (3-7%)
Excerpt: as §1

airways = conditions: concurrent use of hypertonic saline and amiloride; cited from earlier work

SMILES	solubility in NaCl solutions [1]	airway surface hydration (airway surface)	effect on water permeability of airways (airways)
N=C(NCCCCc1ccc(OCC(O)CO)cc1)NC(=O)c1nc(Cl)c(N)nc1N (stereo not drawn) [PS552-02]	poor	synergistically enhance	–
N=C(N)NC(=O)c1nc(Cl)c(N)nc1N [Amiloride, amiloride]	–	–	block the water permeability of airways

Reference: US20100074881A1, “MULTIPLE NEBULIZER SYSTEMS” (PARION SCIENCES, Inc., priority 2008, published 2010)
